{"source": "patent US20110091377A1", "about": "“BIOMARKERS FOR MELANOMA” (THE JOHNS HOPKINS UNIVERSITY, priority 2007, published 2011)", "type_in_all_cases": "cell-based, human", "key": {"[1]": {"test_system": "WM852 (wildtype BRAF melanoma)", "test": "3H-thymidine cell proliferation assay, WM852", "conditions": "100 nM siRNA", "experimental": "(§1) The MMP-1 siRNA (5′-gagcaagatgtggacttag-3′) and scrambled siRNA (5′-gattcaggtgtagaacgag-3′) sequences were designed using Dharmacon siDESIGN Center. Transfection of the siRNAs was performed using 2 μL of DharmaFECT 1 transfection reagent (Dharmacon) and 100 nM of MMP-1 siRNA and scrambled siRNA for the WM852 cell line and 250 nM for the WM793 cell line. Cells were collected and pelleted 24 hours after transfection for RNA extraction using the RNeasy Mini Kit ([…]), cDNA production by using SUPERSCRIPT First-Strand Synthesis System for RT-PCR according to manufacturer's instructions (Invitrogen), and semi-quantitative duplex PCR to confirm MMP-1 knockdown.\n(§2) WM852 and WM793 cell lines were seeded at 15,000 cells per well into a 96-well tissue culture plate (Becton Dickinson) 24 hours after siRNA transfection. Twenty-two hours later, 10 μL of 0.1 μCi/μL ^3H-thymidine (Perkin Elmer) was added to each well. After 4 hours, the cells were washed with PBS and 50 μL of trypsin was added into each well for 10 minutes. The trypsinized cells were harvested to a filtermat using the Perkin Elmer FilterMate cell harvester (Perkin Elmer). The dried filtermat was sealed in a sample bag with 4 mL of scintillation fluid and then read on a Perkin Elmer 1450 Microbeta Liquid Scintillator (Perkin Elmer)."}, "MMP-1 [2]": {"test_system": "MMP-1", "test": "Semi-quantitative duplex RT-PCR of MMP-1 after siRNA gene silencing", "conditions": "24 hours after transfection", "experimental": "as §1\nSemi-quantitative duplex RT-PCR was performed by a MJ Research Programmable Thermal Controller (PTC-100, Inc.) and the amplified products were separated on an agarose gel. The duplex PCR utilized 20 by oligonucleotides to amplify regions of ˜350 by from MMP-1. Optimization experiments were conducted to determine a favorable primer concentration for the GAPDH internal control. The following primer oligonucleotides were used: MMP-1 forward (5′-[…]-3′), MMP-1 reverse (5′-[…]-3′), GAPDH forward (5′-[…]-3′), and GAPDH reverse (5′-[…]-3′). The PCR was carried out in a total volume of 25 uL, containing 2.5 uL of 10×PCR Buffer (containing 15 mM MgC12), 0.2 mM dNTPs, and 0.3 ul AmpliTaq Gold DNA Polymerase (Applied Biosystems). […]"}, "[3]": {"test_system": "WM793 (BRAF V600E melanoma)", "test": "3H-thymidine cell proliferation assay, WM793", "conditions": "BRAF mutant melanoma (WM793), 250 nM siRNA", "experimental": "as §1, §2"}, "MMP-1 [4]": {"test_system": "MMP-1", "test": "MMP-1 ELISA of cell culture media after siRNA gene silencing", "experimental": "Cell culture media with no serum was added to the cell lines. After 72 hours, the media was collected and the protein concentration was determined using the Bio-Rad Protein Assay reagent (Bio-Rad Laboratories). The amount of human MMP-1 pro and active forms was determined using the RAYBIO Human MMP-1 ELISA kit (RayBiotech, Inc.) following the manufacturer's instructions. MMP-1 activity in the collected media was measured using the SensoLyte Plus™ 520 MMP-1 Assay Kit (AnaSpec) following the manufacturer's protocol including the step to add 4-aminophenylmecuric acetate (APMA) to the samples in order to activate all the pro-MMP-1."}}}
{"substance": "5′-gagcaagatgtggacttag-3′ [MMP-1 siRNA]", "values": [{"measurement": "cell growth inhibition versus control siRNA", "setting": "[1]", "result": 17, "unit": "%"}, {"measurement": "MMP-1 transcript levels", "setting": "MMP-1 [2]; WM793, BRAF V600E, 250 nM siRNA", "result": "efficiently downregulated"}, {"measurement": "MMP-1 transcript levels", "setting": "MMP-1 [2]; WM852, wildtype BRAF, 100 nM siRNA", "result": "efficiently downregulated"}, {"measurement": "cell growth inhibition versus control siRNA", "setting": "[3]", "result": 80, "unit": "%"}, {"measurement": "secreted MMP-1 protein levels from conditioned media", "setting": "MMP-1 [4]; WM793, BRAF V600E", "result": "efficiently downregulated"}, {"measurement": "secreted MMP-1 protein levels from conditioned media", "setting": "MMP-1 [4]; WM852, wildtype BRAF", "result": "efficiently downregulated"}]}
